Melting point data for 86 compounds are collected here from a melting point compilation (Tetko et al.; mined from patent text by program, amines drawn as free bases though some values may be those of a salt).

Some results are limits rather than exact numbers.

Consider `C#CC[C@H]1C(=O)O[C@@H]1C[C@@H](CCCCCCCCCCCCCCCCC)O[Si](C)(C)C(C)(C)C`, for which the melting point lay in the range of 62 to 63 °C. Under `COc1ccc2nc(-c3ccc(C=C4C(=O)C5(C)CCC4C5(C)C)cc3)[nH]c2c1` (stereo unspecified) stands 138 to 142 °C.

For `CNS(=O)(=O)c1cc(OC)c(OC)c(C(=O)O)c1`, the melting point fell in the range of 164 to 165 °C. Under `COc1cccc2c(CCOCc3ccc(-c4ccccc4)cc3)coc12` stands 77 to 78 °C. Under `c1ccc(-c2cn(C3CCCN4CCCCC34)nn2)cc1` (stereo unspecified) stands 150 °C; under `CCOC(=O)c1nc(C)n2c1CN=C(c1ccccc1Cl)c1cc([N+](=O)[O-])ccc1-2`, 233 to 234 °C.

Take `CCCN(CCCC(=O)Nc1c(C(C)C)nc(C)nc1N(CC)CC)c1ccccc1`: the melting point lay in the range of 129 to 131 °C. The figure for `COCC1(C)Oc2ccccc2C(n2ccccc2=O)C1O` (stereo unspecified) is 244 to 246 °C; for `COc1ccc(C(=O)CCCCCN2CCC(CNC(=O)c3cc(Cl)c(N)cc3OC)CC2)cc1` it is 133 to 135 °C; for `CCCCOc1ncc(-c2ccco2)cc1-c1nc2c(CC)n(CCOC)nc2c(=O)[nH]1` it is 154 to 155 °C. In turn, `Oc1nc(S)n(-c2ccccc2)n1` returned a melting point of 223 to 226 °C. The figure for `Cc1cnc2[nH]cc(/C=C3\N=C(NCC(C)C)NC3=O)c2c1` is 338 to 339 °C.

`O=c1[nH]c2ccccc2c2c(CCC3CCNCC3)n(-c3ccccc3)nc12` had a melting point of 250 to 252 °C. The figure for `CCCC(=O)c1c[nH]c2c(OC)csc2c1=O` is 222 to 225 °C; for `CCNC(=O)c1cnn(C)c1C(=O)Nc1ccn2nc(-c3ccccc3)nc2c1` it is 253 to 255 °C; for `COCc1c(C(=O)OC)c2cc(O)ccc2n1C` it is 168 to 170 °C. For the compound `CC(CSC#N)n1nnc2cc3c(=O)n(C4CC4)nnc3cc2c1=O` (stereo unspecified), the melting point is 178 to 180 °C.

Compound `Cc1c(C)c2c(c(C)c1OC(=O)c1ccccc1)SC(C)O2` (stereo unspecified) showed a melting point of 100 to 102 °C.

`OCCCc1nc(-c2ccccc2)co1`: the melting point lay in the range of 55 to 56 °C. The figure for `CCCc1nccn1-c1ncnc2nc[nH]c12` is 242 to 244 °C; for `COc1cc(C(=O)Nc2c(C)cc3cn[nH]c3c2C(=O)NC2(C3CC3)CC2)n(-c2ncccc2Cl)n1` it is 150 to 154 °C; for `CCOC(=O)c1cc(-n2c(=O)c3c(n(C)c2=O)CCC3)ccc1Cl` it is 141 to 143 °C.

The compound `C=CC1OC(=O)c2c(Oc3nc(OC)cc(OC)n3)cccc21` (stereo unspecified) showed a melting point of 94 to 97 °C.

As to `CNCCCNC(=O)c1[nH]c(-c2ccccc2)c2cc(Cl)ccc12`, the melting point lay in the range of 162 to 164 °C.

For the compound `CCN(CC)c1ccc(-c2cc3ccccc3o2)cc1`, the melting point lay in the range of 117 to 119 °C.

In turn, `CC(C)(C)OC(=O)N1CCN(c2cc(Cl)ccc2NC(=O)c2ccnc(Cl)c2)CC1` yielded a melting point of 185 to 189 °C. `CON=C1CN(c2c(F)c(N)c3c(=O)c(C(=O)O)cn(C4CC4)c3c2F)CC12CN(C)C2` displayed a melting point of 220 to 222 °C. Under `CCCn1cnc2cc(CN3CCN(C(c4ccccc4)c4ccccc4)CC3)ccc21` stands 155 °C; under `OCc1cnn(-c2c(Cl)cc(C(F)(F)F)cc2Cl)n1`, 87 to 88 °C. The figure for `CCOC(=O)C1CCc2c([nH]c3ccc(N(C)C)cc23)C1` (stereo unspecified) is 100 to 101 °C; for `CCC(CC)n1cc(C)nc(N2CCc3cc(Cl)cc(Cl)c32)c1=O` it is 137 to 139 °C; for `Clc1ccc(COc2ccccc2C(=NOCc2ccccc2)n2ccnc2)cc1` it is 94 to 95.5 °C. `O=S(=O)(c1nc(-c2ccc(F)cc2)c(-c2cccs2)[nH]1)C(F)(F)C(F)F`: the melting point was 192 to 193 °C. Under `CC(C)(C)c1cc(-c2csc(SCC(=O)O)n2)cc(C(C)(C)C)c1O` stands 158 to 159 °C.

In turn, `CCOc1c(OC)cccc1-c1nc2ccc(C(=O)Cl)cc2c(=O)[nH]1` registered a melting point of 93 to 94 °C.

`CS(=O)(=O)OCCc1ccc(NC(=O)OCc2ccccc2)cc1CCOS(C)(=O)=O` registered a melting point of 58 to 60 °C. Compound `Cc1cc(C)cc(Oc2c(C(C)C)c(=O)[nH]c(=O)n2CC2CCCC2)c1` gave a melting point of 157 to 158 °C. Under `CS(=O)(=O)N1CCC=CCC1` stands 95 to 96 °C; under `CNC(=S)C1(c2ccncc2)CCCS1` (stereo unspecified), 178 °C. Under `CC(C)(C)OC(=O)N1CCc2c(n(CCOc3ccc(F)cc3)c3ccc(Cl)c(Cl)c23)CC1` stands 164 to 166 °C.

The compound `COc1ccc(C2Sc3c(ccc4ccccc34)N(CCN(C)C)C(=O)C2OC(=O)c2cccnc2)cc1` (stereo unspecified) displayed a melting point of 144 to 145 °C.

As to `C=CC(C)(CCC=C(C)C)OCC(=O)c1cc(C(C)C)c(O)c(C(C)C)c1` (stereo unspecified), the melting point lay in the range of 71 to 72 °C. Take `Cc1cc(-c2nc3c(Cl)cccc3c(=O)n2-c2ccc(Br)cc2)cc(C)c1OCCO`: the melting point lay in the range of 185 to 186 °C. For the compound `CCCC=Cc1c(C)nc(C(C)C)c(CO)c1-c1ccc(F)cc1`, the melting point was 106 to 108 °C.

As for `Cc1c(C)c(N2CCN(c3ccc(C(F)(F)F)cc3)CC2)c(C)c2c1OC(C)(C)C2N1CCCCC1` (stereo unspecified), the melting point was 182 to 183 °C.

As to `O=C1CCC(N2Cc3c(OCc4ccc(CN(CCC(F)(F)F)CCC(F)(F)F)cc4)cccc3C2=O)C(=O)N1` (stereo unspecified), the melting point lay in the range of 107 to 109 °C. With `COc1cccc(C(=O)Nc2nc(-c3cccc(C#N)c3)c(-c3ccncn3)s2)c1`, the melting point was in the range of 255 to 256 °C. The figure for `CCC1(CCCN2CCc3sccc3C2)C(=O)Nc2ccccc21` (stereo unspecified) is 130 to 132 °C; for `O=c1cc(-n2ccnc2)c2cc(C(c3ccc(Cl)cc3)n3ccnc3)ccc2[nH]1` (stereo unspecified) it is 242 °C.

`O=C(O)Cc1ccc(OCc2ccc(F)cc2C(=O)O)cc1`: the melting point lay within 195 to 197 °C. Under `N#Cc1ccc(F)cc1-c1ccc(OCc2ccccc2)cc1` stands 94 to 96 °C; under `Cc1ccc(-c2ccc3c(c2)C=C(C(=O)Nc2ccc(CN(C)C4CCOCC4)cc2)CC(c2ccccc2)O3)cc1` (stereo unspecified), 178 to 179 °C. `COC(=O)C1=Cc2cc(-c3ccc(N4CCOCC4)cc3)ccc2N(C=O)CC1` gave a melting point of 178 to 181 °C. Under `Cc1ccc(S(N)(=O)=O)cc1NC(=O)c1cnn2c(C(F)(F)F)cc(-c3ccc(C(F)(F)F)cc3)nc12` stands 310 °C. Take `COc1cc2[nH]c3c(OC)c(OC)ccc3c2cc1OC`: the melting point is 170 to 171 °C. Under `O=C(O)CC12CC3CC(CC(Cl)(C3)C1)C2` stands 182 to 184 °C; under `COc1cc(NS(C)(=O)=O)ccc1-c1nc2cc3c(cc2[nH]1)NC(=O)C3(C)C`, over 300 °C; under `O=C(O)c1c(OCc2cccc(OCc3ccc4ccccc4n3)c2)cccc1C(F)(F)F`, 184 to 185 °C. Consider `CC(=Cc1ccccc1)c1ccc2c(c1)C(C)(C)C(O)C2(C)C` (stereo unspecified), for which the melting point was 63 to 67 °C. Consider `CCCCCCCc1cnc(-c2ccc(C(=O)Oc3ccc(-c4ncc(CCCCC)cn4)cc3)cc2)nc1`, for which the melting point worked out at 97 °C. The figure for `CN1Cc2nc[nH]c2C[C@@H]1C(=O)c1ccccc1` is 98 °C; for `CCCCOc1c(CNC(=O)OCC2c3ccccc3-c3ccccc32)n(CC(C)C)c(=O)c2ccc(-c3nc(C(=O)OCC)cs3)cc12` it is 203 to 204 °C.

With `CCNC1CN(c2cc3c(cc2F)c(=O)c2c(=O)[nH]sc2n3C2CC2)C1`, the melting point fell in the range of 231 to 236 °C. Consider `O=C(CCN1CCN(c2cccc3[nH]ccc23)CC1)c1csc2ccccc12`, for which the melting point lay within 83 to 85 °C. In turn, `CC(=O)Oc1cc2cc[nH]c2cc1OC(C)=O` came in with a melting point of 130 to 131 °C. Under `O=c1oc(-c2ccc(C(F)(F)F)cc2)nn1Cc1cc(Cl)ccc1O` stands 144 to 145 °C; under `O=C(CS(=O)(=O)c1ccccc1)c1ccc(F)nc1`, 127 to 128 °C; under `O=C(CCC(CCC(=O)OCc1ccccc1)(CCC(=O)OCc1ccccc1)[N+](=O)[O-])OCc1ccccc1`, 95 to 96 °C.

`COC(=O)c1nc2ccc(Cl)cc2c(O)c1C(=O)OC`: the melting point was in the range of 228 to 230 °C. In turn, `N#CCC(=O)NCc1cccc(Cl)c1` returned a melting point of 123 to 125 °C.

`Cc1cnc2[nH]cc(/C=C3\N=C(N4CCN(c5ccccc5)CC4)NC3=O)c2c1` returned a melting point of 331 to 332 °C.

For `Cc1cccc(-c2nc(NC(=O)Cc3ccccc3)sc2-c2ccnc(NC(=O)Cc3ccccc3)n2)c1`, the melting point was 110 to 113 °C. As to `COC(=O)c1cn2c(n1)COc1ccccc1-2`, the melting point lay in the range of 133 to 134 °C. The figure for `COC(=O)c1cc(-c2ccc(Cl)cc2)n(-c2ccc(S(N)(=O)=O)cc2)n1` is 186 °C; for `CCOC(=O)c1cnc(SC)nc1NC(C)C` it is 159 to 160 °C; for `CS(=O)(=O)c1ccc(-c2cnn(-c3ccc(F)c(F)c3)c(=O)c2-c2ccc(F)cc2)cc1` it is 109 to 110 °C.

Compound `Cn1cncc1-c1cccc(Nc2nccc3ccccc23)c1` showed a melting point of 208 to 209 °C. Under `CCCC(CCC)NC(=O)c1ccc2oc(OCC)nc2c1` stands 128 to 129 °C; under `CCCCOC(=O)N[C@H]1C(=O)N[C@H]1CO` (relative stereo), 128 to 131 °C; under `CNC(=S)NCCN1CCCCC1`, 166 °C. Consider `COc1ccc(N2CCN(Cc3ccc(Nc4ccnc5cc(C(F)(F)F)ccc45)cc3)CC2)cc1`, for which the melting point was in the range of 235 to 237 °C. With `CCOC(=O)CCCn1nnnc1-c1ccc2c(c1)[C@@H](Nc1ccnc(SC)n1)[C@](C)(O)C(C)(C)O2`, the melting point is 115 to 130 °C. In turn, `O=c1[nH]c2c(c3nc(-c4ccccc4F)cn13)CNCC2` displayed a melting point of over 310 °C.

`CC(=O)c1ccc(N2CCN(C(=O)c3c(Cl)ccc([N+](=O)[O-])c3Cl)CC2)c(F)c1` registered a melting point of 209 to 211 °C. The figure for `COc1cc2c(cc1OC)-c1cc(Nc3ccc(C)cc3C)nc(=O)n1CC2` is 239 to 241 °C; for `CCOc1nc2c(N)nc3cccnc3c2n1[C@@H](C)c1ccccc1` it is 187 to 190 °C.
